Data published in patent US11352350B2, “IRAK degraders and uses thereof” (Kymera Therapeutics, Inc., priority 2018, dated 2022).
Where two headings read alike, the source gives them in different places.

Legend:
IRAK4 = IRAK4 (Homo sapiens (Human), UniProt Q9NWZ3); assay: IRAK4 MSD degradation in OCI-LY10; type: cell-based
Outline: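 OCI-LY10 cells treated with 8-point 1:3 dilutions (top 1 to 10 μM final) for 4 to 24 h at 37° C. Lysate IRAK4 measured by MSD sandwich immunoassay (2H9 capture, Y279 detection, SULFO-TAG anti-rabbit). DC50 from three-parameter logistic fit.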

OCI-LY10 = assay: CTG Cell Viability Assay - OCI-LY10; type: cell-based, human; conditions: Homo sapiens, OCI-LY10, 4 days, read-out: CTG Cell Viability Assay - OCI-LY10: Average external-IC50
Outline: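 OCI-LY10 cells exposed to 9-dose, 1:3 dilutions from 10 μM top (0.2% DMSO) for 4 days at 37° C, 5% CO2. Viability by CellTiter-Glo luminescence; IC50 from three-parameter logistic fit.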

[1] = OCI-LY10, 4 hrs, MSD, read-out: IRAK4 MSD degradation in OCI-LY10 at 4 hrs: Average external-Abs DC50
[2] = OCI-LY10, 24 hrs, MSD, read-out: IRAK4 MSD degradation in OCI-LY10 at 24 hrs: Average external-Abs DC50
[3] = OCI-LY10, 4 hrs, read-out: IRAK4 MSD degradation in OCI-LY10 at 4 hrs: DC50
[4] = OCI-LY10, 24 hrs, read-out: IRAK4 MSD degradation in OCI-LY10 at 24 hrs: DC50

IRAK4, sequence (Q9NWZ3 whole entry): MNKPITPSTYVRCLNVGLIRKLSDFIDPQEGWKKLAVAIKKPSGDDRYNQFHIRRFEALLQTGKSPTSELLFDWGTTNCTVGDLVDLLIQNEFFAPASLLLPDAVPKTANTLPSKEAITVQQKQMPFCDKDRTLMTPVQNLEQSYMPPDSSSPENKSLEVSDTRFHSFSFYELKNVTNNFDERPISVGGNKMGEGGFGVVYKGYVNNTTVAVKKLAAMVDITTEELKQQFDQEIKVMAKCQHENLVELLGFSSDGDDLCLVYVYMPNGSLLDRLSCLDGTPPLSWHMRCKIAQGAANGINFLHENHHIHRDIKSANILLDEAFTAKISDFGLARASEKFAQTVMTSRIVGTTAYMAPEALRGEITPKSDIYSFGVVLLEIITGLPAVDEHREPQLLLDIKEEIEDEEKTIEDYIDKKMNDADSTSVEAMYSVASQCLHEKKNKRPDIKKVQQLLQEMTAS

Row | SMILES | DC50 (IRAK4; [1]) [nM] | DC50 (IRAK4; [2]) [nM] | IC50 (OCI-LY10; OCI-Ly10, 96 h) [nM] | IC50 (OCI-LY10; 96 h) [nM] | DC50 (IRAK4; [3]) [nM] | DC50 (IRAK4; [4]) [nM]
1 | O=C1CCC(N2C(=O)c3cccc(NCc4ccc(CN5CCN(C[C@H]6CC[C@H](n7cc(NC(=O)c8cnn9ccc(N%10CCOCC%10)nc89)c(C(F)F)n7)CC6)CC5)cc4)c3C2=O)C(=O)N1 (stereo partly drawn) [I-356] | > 1000 | 10 to 100 | < 50 |  |  | 
2 | CC[C@@H]1[C@H](F)C(=O)N[C@@H]1COc1ncc(C#C[C@H]2CC[C@H](CN(C)CCCOCCCN)CC2)c2cc(C(N)=O)c(OC)cc12 [I-316, 4-[2-[4-[[3-(3-Aminopropoxy)propyl-methyl-amino]methyl]cyclohexyl]ethynyl]-1-[[(2S, 3S, 4S)-3-ethyl-4-fluoro-5-oxo-pyrrolidin-2-yl]methoxy]-7-methoxy-isoquinoline-6-carboxamide] | > 1000 | > 1000 |  | > 1000 |  | 
3 | O=C(Nc1cn([C@H]2CC[C@H](CNC[C@H]3CC[C@H](n4cc(NC(=O)c5cnn6ccc(N7CCOCC7)nc56)c(C(F)F)n4)CC3)CC2)nc1C(F)F)c1cnn2ccc(N3CCOCC3)nc12 [I-408, N-[3-(difluoromethyl)-1-[4-[[[4-[3-(difluoromethyl)-4-[(5-morpholinopyrazolo[1,5-a]pyrimidine-3-carbonyl)amino]pyrazol-1-yl]cyclohexyl]methylamino]methyl]cyclohexyl]pyrazol-4-yl]-5-morpholino-pyrazol [1,5-a] pyrimidine-3-carboxamide] | > 1000 | > 1000 | > 1000 |  |  | 
4 | O=C1CCC(N2C(=O)c3cccc(NCCOC[C@H]4CC[C@H](n5cc(NC(=O)c6cnn7ccc(N8C[C@H]9C[C@@H]8CO9)nc67)c(C(F)F)n5)CC4)c3C2=O)C(=O)N1 (stereo partly drawn) [I-369] | > 1000 | > 1000 | 100 to 500 |  |  | 
5 | CC[C@H]1C(COc2ncc(C#CC3CCC(CN(C)CCCOCCCc4cccc5c4n(C)c(=O)n5C4CCC(=O)NC4=O)CC3)c3cc(C(N)=O)c(OC)cc23)NC(=O)[C@H]1F (stereo partly drawn) [I-184] | 10 to 100 | 10 to 100 | > 1000 |  |  | 
6 | CN(CCCOCCCN)C[C@H]1CC[C@H](n2cc(NC(=O)c3cnn4ccc(N5CCOCC5)nc34)c(C(F)F)n2)CC1 [I-315, N-[1-[4-[[3-(3-aminopropoxy)propyl-methyl-amino]methyl]cyclohexyl]-3-(difluoromethyl)pyrazol-4-yl]-5-morpholino-pyrazolo[1,5-a] pyrimidine-3-carboxamide] | > 1000 | > 1000 | > 1000 |  |  | 
7 | CN(C[C@H]1CC[C@H](n2cc(NC(=O)c3coc(-c4ccnc(NCC5CC5)c4)n3)c(C(F)F)n2)CC1)C1CCN(Cc2cccc3c2C(=O)N(C2CCC(=O)NC2=O)C3=O)CC1 (stereo partly drawn) [I-169] | < 10 |  | > 1000 |  |  | 
8 | Cc1c[nH]c2ncnc(N[C@H]3CC[C@H](N4CCN(C(=O)COCCOCCOCCOCCCc5ccc6c(c5)n(C)c(=O)n6C5CCC(=O)NC5=O)CC4)CC3)c12 (stereo partly drawn) [I-26] | > 1000 | > 1000 | > 1000 |  |  | 
9 | O=C1CCC(N2C(=O)c3cccc(NCCOCCCN4CCN(c5ncc(-n6cc(NC(=O)c7cnn8ccc(N9C[C@H]%10C[C@@H]9CO%10)nc78)c(C(F)F)n6)cn5)CC4)c3C2=O)C(=O)N1 (stereo partly drawn) [I-474] |  |  | < 50 |  | 100 to 1000 | 10 to 100
10 | CN(CC1CC1)c1ccn2ncc(C(=O)Nc3cn([C@H]4CC[C@H](CN(C)[C@H]5CC[C@H](Nc6cccc7c6C(=O)N(C6CCC(=O)NC6=O)C7=O)CC5)CC4)nc3C(F)F)c2n1 (stereo partly drawn) [I-455] |  |  | 50 to 100 |  | 10 to 100 | 10 to 100
11 | O=C1CCC(N2C(=O)c3cccc(NCCCOC4CCN(C[C@H]5CC[C@H](n6cc(NC(=O)c7cnn8ccc(N9C[C@H]%10C[C@@H]9CO%10)nc78)c(C(F)F)n6)CC5)CC4)c3C2=O)C(=O)N1 (stereo partly drawn) [I-371] |  | 10 to 100 | 50 to 100 |  |  | 
12 | C=C(C)c1nn([C@H]2CC[C@H](CN3CCC(OCCCc4cccc5c4n(C)c(=O)n5C4CCC(=O)NC4=O)CC3)CC2)cc1NC(=O)c1cnn2ccc(NCC3CC3)nc12 (stereo partly drawn) [I-172] | 100 to 1000 |  | > 1000 |  |  | 
13 | CN(CCC(C)(C)O)c1ccn2ncc(C(=O)Nc3cn([C@H]4CC[C@H](CN(C)[C@H]5CC[C@H](Nc6cccc7c6C(=O)N(C6CCC(=O)NC6=O)C7=O)CC5)CC4)nc3C(F)F)c2n1 (stereo partly drawn) [I-504] |  |  | 100 to 500 |  | > 1000 | 10 to 100
14 | O=C1CCC(N2C(=O)c3cccc(NC[C@H]4CC[C@H](OC5CCN(C[C@H]6CC[C@H](n7cc(NC(=O)c8cnn9ccc(N%10CCOCC%10)nc89)c(C(F)F)n7)CC6)CC5)CC4)c3C2=O)C(=O)N1 (stereo partly drawn) [I-473] |  |  | < 50 |  | 10 to 100 | < 10
15 | CN[C@@H](C)C(=O)N[C@H](C(=O)N1CCC[C@H]1c1nc(C(=O)c2cccc(OCCOCCOCCOCCOCCNC[C@H]3CC[C@H](n4cc(NC(=O)c5coc(-c6ccnc(NCC7CC7)c6)n5)c(C(F)F)n4)CC3)c2)cs1)C1CCCCC1 [I-274] | 100 to 1000 | 100 to 1000 | 500 to 1000 |  |  | 
16 | O=C1CCC(N2C(=O)c3cccc(N[C@H]4C[C@H](OC5CCN(C[C@H]6CC[C@H](n7cc(NC(=O)c8cnn9ccc(N%10CCOCC%10)nc89)c(C(F)F)n7)CC6)CC5)C4)c3C2=O)C(=O)N1 (stereo partly drawn) [I-506] |  |  | 500 to 1000 |  | 10 to 100 | < 10
17 | O=C1CCC(N2C(=O)c3cccc(NCCOC4CCN(C[C@H]5CC[C@H](n6cc(NC(=O)c7cnn8ccc(N9CCOCC9)nc78)c(C(F)F)n6)CC5)CC4)c3C2=O)C(=O)N1 (stereo partly drawn) [I-210] | 10 to 100 | 10 to 100 | > 1000 |  |  | 
18 | CC[C@@H]1[C@H](F)C(=O)N[C@@H]1COc1ncc(C#C[C@H]2CC[C@H](CN3CCC(OCCCc4cccc5c4n(C)c(=O)n5C4CCC(=O)NC4=O)CC3)CC2)c2cc(C(N)=O)c(OC)cc12 (stereo partly drawn) [I-186] | 10 to 100 | < 10 | > 1000 |  |  | 
19 | Cn1c(=O)n(C2CCC(=O)NC2=O)c2cccc(CN3CCC4(CC3)CCN(C[C@H]3CC[C@H](n5cc(NC(=O)c6coc(-c7ccnc(NCC8CC8)c7)n6)c(C(F)F)n5)CC3)CC4)c21 (stereo partly drawn) [I-245] | 10 to 100 |  | < 50 |  |  | 
20 | O=C1CCC(N2C(=O)c3cccc(NCCOC4CCN(C[C@H]5CC[C@H](n6cc(NC(=O)c7cnn8ccc(N9C[C@H]%10C[C@@H]9CO%10)nc78)c(C(F)F)n6)CC5)CC4)c3C2=O)C(=O)N1 (stereo partly drawn) [I-299] | 10 to 100 |  | 50 to 100 |  |  | 
21 | Cn1c(=O)n(C2CCC(=O)NC2=O)c2ccc(CCCCOCCCCNCC(=O)N3CCN([C@H]4CC[C@H](Nc5ncnc6[nH]cc(C7CCOCC7)c56)CC4)CC3)cc21 (stereo partly drawn) [I-23] | 10 to 100 | < 10 | 50 to 100 |  |  | 
22 | CN1C(=O)C(C2CCC(=O)NC2=O)c2cccc(CCCOC3CCN(C[C@H]4CC[C@H](n5cc(NC(=O)c6cnn7ccc(N8CC(O)C8)nc67)c(C(F)F)n5)CC4)CC3)c21 (stereo partly drawn) [I-284] | < 10 |  | > 1000 |  |  | 
23 | Cn1c(=O)n(C2CCC(=O)NC2=O)c2cccc(CCCO[C@H]3CC[C@H](CN4CCC(n5cc(NC(=O)c6cnn7ccc(N8CCOCC8)nc67)c(C(F)F)n5)CC4)CC3)c21 (stereo partly drawn) [I-200] | < 10 |  | 50 to 100 |  |  | 
24 | O=C1CCC(N2C(=O)c3cccc(NCCCOC4CCN(Cc5ccc(-n6cc(NC(=O)c7cnn8ccc(N9C[C@H]%10CC9CO%10)nc78)c(C(F)F)n6)cc5)CC4)c3C2=O)C(=O)N1 (stereo partly drawn) [I-438] | 100 to 1000 | 10 to 100 | 50 to 100 |  |  | 
25 | CC[C@@H]1CC(=O)N[C@@H]1COc1ncc(C#C[C@H]2CC[C@@H](CN(C)CCCOCCCc3cccc4c3n(C)c(=O)n4C3CCC(=O)NC3=O)CC2)c2cc(C(N)=O)c(OC)cc12 (stereo partly drawn) [I-201] | > 1000 | 100 to 1000 | > 1000 |  |  | 
26 | Cn1c(=O)n(C2CCC(=O)NC2=O)c2cccc(CCCOCCOCCNC(=O)[C@H]3CC[C@@H](n4cc(NC(=O)c5coc(-c6ccnc(NCC7CC7)c6)n5)c(C(F)F)n4)CC3)c21 (stereo partly drawn) [I-15] | 10 to 100 | 10 to 100 | > 1000 |  |  | 
27 | O=C1CCC(N2C(=O)c3cccc(NCC4CC5(CCN(C[C@H]6CC[C@H](n7cc(NC(=O)c8cnn9ccc(N%10C[C@H]%11C[C@@H]%10CO%11)nc89)c(C(F)F)n7)CC6)CC5)C4)c3C2=O)C(=O)N1 (stereo partly drawn) [I-373] | > 1000 | 10 to 100 | < 50 |  |  | 
28 | O=C1CCC(N2C(=O)c3cccc(NC4CCN(C5CCN(C[C@H]6CC[C@H](n7cc(NC(=O)c8cnn9ccc(N%10CCOCC%10)nc89)c(C(F)F)n7)CC6)CC5)CC4)c3C2=O)C(=O)N1 (stereo partly drawn) [I-232] | < 10 |  | < 50 |  |  | 
29 | Cn1c(=O)n([C@@H]2CCC(=O)NC2=O)c2cccc(CCCOC3CCN(C[C@H]4CC[C@H](n5cc(NC(=O)c6cnn7ccc(N8CCOCC8)nc67)c(C(F)F)n5)CC4)CC3)c21 [I-311, N-(3-(difluoromethyl)-1-((1r,4r)-4-((4-(3-(1-((R)-2,6-dioxopiperidin-3-yl)-3-methyl-2-oxo-2,3-dihydro-1H-benzo [d]imidazol-4-yl)propoxy)piperidin-1-yl)methyl)cyclohexyl)-1H-pyrazol-4-yl)-5-morpholinopyrazolo[1,5-a] pyrimidine-3-carboxamide] | 10 to 100 |  | > 1000 |  |  | 
30 | CN(CCCN1CCO[C@H](CNc2cccc3c2C(=O)N(C2CCC(=O)NC2=O)C3=O)C1)C[C@H]1CC[C@H](n2cc(NC(=O)c3cnn4ccc(N5C[C@H]6C[C@@H]5CO6)nc34)c(C(F)F)n2)CC1 (stereo partly drawn) [I-475] |  |  | < 50 |  | 10 to 100 | < 10
